Test results: PMC5218480 (PLoS ONE, 2017)

System: MV-4-11 cells
Experiment: Gene expression microarray analysis (Affymetrix PrimeView) and GSEA
Type: cell-based, human
Design: RFU PODN (11730768_x_at) / Fold change /veh PODN (11730768_x_at) / RFU LINC00158 (11744669_a_at) / Fold change /veh LINC00158 (11744669_a_at) / RFU DUSP10 (11751237_a_at) / Fold change /veh DUSP10 (11751237_a_at) / RFU ID3 (11757404_x_at) / Fold change /veh ID3 (11757404_x_at) / RFU PLEKHG5 (11737974_s_at) / Fold change /veh PLEKHG5 (11737974_s_at) / RFU LRRC4B (11730491_at) / Fold change /veh LRRC4B (11730491_at) / RFU GIMAP4 (11747438_a_at) / Fold change /veh GIMAP4 (11747438_a_at) / RFU KRT8 (11758183_x_at) / Fold change /veh KRT8 (11758183_x_at) / RFU CNN1 (11734310_a_at) / Fold change /veh CNN1 (11734310_a_at) / RFU VPS37D (11726825_at) / Fold change /veh VPS37D (11726825_at) / RFU C10orf10 (11716522_x_at) / Fold change /veh C10orf10 (11716522_x_at) / RFU KIR2DL2 /// KIR2DL4 /// KIR2DL5A /// KIR2DL5B /// KIR2DS1 /// KIR2DS2 /// KIR2DS3 /// KIR2DS4 /// KIR3DL3 /// KIR3DL3 /// KIR3DS1 (11738374_at) / Fold change /veh KIR2DL2 /// KIR2DL4 /// KIR2DL5A /// KIR2DL5B /// KIR2DS1 /// KIR2DS2 /// KIR2DS3 /// KIR2DS4 /// KIR3DL3 /// KIR3DL3 /// KIR3DS1 (11738374_at) / RFU C1QL1 (11718748_at) / Fold change /veh C1QL1 (11718748_at) / RFU TMPRSS4 (11747572_a_at) / Fold change /veh TMPRSS4 (11747572_a_at) / RFU HAMP (11756126_x_at) / Fold change /veh HAMP (11756126_x_at) / RFU RNFT2 (11725882_a_at) / Fold change /veh RNFT2 (11725882_a_at) / RFU NR4A2 (11747474_a_at) / Fold change /veh NR4A2 (11747474_a_at) / RFU ABCC12 (11746883_a_at) / Fold change /veh ABCC12 (11746883_a_at) / RFU TMEM136 (11760407_x_at) / Fold change /veh TMEM136 (11760407_x_at) / RFU CLDN22 /// WWC2 (11732394_at) / Fold change /veh CLDN22 /// WWC2 (11732394_at) / RFU HLA-DPB1 (11760878_x_at) / Fold change /veh HLA-DPB1 (11760878_x_at) / RFU SPINT1 (11716480_a_at) / Fold change /veh SPINT1 (11716480_a_at) / RFU GAP43 (11754022_s_at) / Fold change /veh GAP43 (11754022_s_at) / RFU A4GNT (11735810_at) / Fold change /veh A4GNT (11735810_at) / RFU PRB3 (11715151_x_at) / Fold change /veh PRB3 (11715151_x_at) / RFU TUBB4B (11761932_at) / Fold change /veh TUBB4B (11761932_at) / RFU CAPN14 (11732068_a_at) / Fold change /veh CAPN14 (11732068_a_at) / RFU TMCC2 (11721928_a_at) / Fold change /veh TMCC2 (11721928_a_at) / RFU IRGQ (11745062_a_at) / Fold change /veh IRGQ (11745062_a_at) / RFU FAM174B (11720279_a_at) / Fold change /veh FAM174B (11720279_a_at) / RFU TMPRSS4 (11748680_a_at) / Fold change /veh TMPRSS4 (11748680_a_at) / RFU FAM212B (11763350_a_at) / Fold change /veh FAM212B (11763350_a_at) / RFU PLEKHG5 (11743358_a_at) / Fold change /veh PLEKHG5 (11743358_a_at) / RFU ZSCAN30 (11745921_a_at) / Fold change /veh ZSCAN30 (11745921_a_at) / RFU CMKLR1 (11741424_a_at) / Fold change /veh CMKLR1 (11741424_a_at) / RFU LOC101060620 /// MAPK8IP1 (11723275_at) / Fold change /veh LOC101060620 /// MAPK8IP1 (11723275_at) / RFU SPTSSB (11747773_x_at) / Fold change /veh SPTSSB (11747773_x_at) / RFU PRSS12 (11739890_at) / Fold change /veh PRSS12 (11739890_at) / RFU BIN1 (11741810_x_at) / Fold change /veh BIN1 (11741810_x_at) / RFU WNT11 (11732464_a_at) / Fold change /veh WNT11 (11732464_a_at) / RFU C10orf10 (11716521_a_at) / Fold change /veh C10orf10 (11716521_a_at) / RFU C5orf56 (11738089_at) / Fold change /veh C5orf56 (11738089_at) / RFU CYB561 (11721691_x_at) / Fold change /veh CYB561 (11721691_x_at) / RFU ANKRD19P (11752326_a_at) / Fold change /veh ANKRD19P (11752326_a_at) / RFU OR2T12 /// OR2T33 /// OR2T8 (11738714_s_at) / Fold change /veh OR2T12 /// OR2T33 /// OR2T8 (11738714_s_at) / RFU VCAN (11748164_a_at) / Fold change /veh VCAN (11748164_a_at) / RFU JSRP1 (11732532_at) / Fold change /veh JSRP1 (11732532_at) / RFU KRTAP10-11 (11738290_x_at) / Fold change /veh KRTAP10-11 (11738290_x_at) / RFU MYO3A (11730013_a_at) / Fold change /veh MYO3A (11730013_a_at) / RFU EBF3 (11725865_a_at) / Fold change /veh EBF3 (11725865_a_at) / RFU CAMK2N1 (11719241_x_at) / Fold change /veh CAMK2N1 (11719241_x_at) / RFU C5orf56 (11738088_a_at) / Fold change /veh C5orf56 (11738088_a_at) / RFU OLFML3 (11715873_a_at) / Fold change /veh OLFML3 (11715873_a_at) / RFU LOC100653217 /// NTM (11731650_a_at) / Fold change /veh LOC100653217 /// NTM (11731650_a_at) / RFU MAPK11 (11762145_a_at) / Fold change /veh MAPK11 (11762145_a_at) / RFU FIZ1 (11724087_x_at) / Fold change /veh FIZ1 (11724087_x_at) / RFU OASL (11726364_x_at) / Fold change /veh OASL (11726364_x_at) / RFU SOX15 (11748057_x_at) / Fold change /veh SOX15 (11748057_x_at) / RFU CD79A (11719716_a_at) / Fold change /veh CD79A (11719716_a_at) / RFU HIST1H1D (11736915_at) / Fold change /veh HIST1H1D (11736915_at) / RFU CASKIN2 (11723855_a_at) / Fold change /veh CASKIN2 (11723855_a_at) / RFU LOC730098 (11760151_x_at) / Fold change /veh LOC730098 (11760151_x_at) / RFU OR4N2 (11742367_at) / Fold change /veh OR4N2 (11742367_at) / RFU PRRT2 (11749266_a_at) / Fold change /veh PRRT2 (11749266_a_at) / RFU SNX32 (11753110_a_at) / Fold change /veh SNX32 (11753110_a_at) / RFU CDHR5 (11726645_a_at) / Fold change /veh CDHR5 (11726645_a_at) / RFU RCAN1 (11760418_a_at) / Fold change /veh RCAN1 (11760418_a_at) / RFU FAM167A (11723789_a_at) / Fold change /veh FAM167A (11723789_a_at) / RFU FAM26E (11764081_at) / Fold change /veh FAM26E (11764081_at) / RFU ISYNA1 (11749810_s_at) / Fold change /veh ISYNA1 (11749810_s_at) / RFU ACY1 (11761880_at) / Fold change /veh ACY1 (11761880_at) / RFU 11764098_at / Fold change /veh 11764098_at / RFU SAMD14 (11745864_x_at) / Fold change /veh SAMD14 (11745864_x_at) / RFU NPB (11741838_a_at) / Fold change /veh NPB (11741838_a_at) / RFU TMPRSS6 (11731388_a_at) / Fold change /veh TMPRSS6 (11731388_a_at) / RFU KRTAP10-2 (11738614_at) / Fold change /veh KRTAP10-2 (11738614_at) / RFU ARHGAP8 /// PRR5-ARHGAP8 (11727945_x_at) / Fold change /veh ARHGAP8 /// PRR5-ARHGAP8 (11727945_x_at) / RFU KRTAP5-7 /// NADSYN1 (11734609_at) / Fold change /veh KRTAP5-7 /// NADSYN1 (11734609_at) / RFU RASL12 (11751679_a_at) / Fold change /veh RASL12 (11751679_a_at) / RFU CDKN2B (11736163_a_at) / Fold change /veh CDKN2B (11736163_a_at) / RFU PRF1 (11729649_at) / Fold change /veh PRF1 (11729649_at) / RFU, ZNF638 /// ZNF638-IT1 / Fold change vs veh, ZNF638 /// ZNF638-IT1 / RFU, PANK3 / Fold change vs veh, PANK3 / RFU, SH3YL1 / Fold change vs veh, SH3YL1 / RFU, ZEB2 / Fold change vs veh, ZEB2 / RFU, NRIP1 / Fold change vs veh, NRIP1 / RFU, PTTG1IP / Fold change vs veh, PTTG1IP / RFU, CAPN2 / Fold change vs veh, CAPN2 / RFU, MED14 / Fold change vs veh, MED14 / RFU, SNORA58 / Fold change vs veh, SNORA58 / RFU, C1orf63 / Fold change vs veh, C1orf63 / RFU, LRRFIP1 / Fold change vs veh, LRRFIP1 / RFU, NDUFAF7 / Fold change vs veh, NDUFAF7 / RFU, SLC12A2 / Fold change vs veh, SLC12A2 / RFU, IBTK / Fold change vs veh, IBTK / RFU, ESF1 / Fold change vs veh, ESF1 / Fold change vs veh, TMEM50B / RFU, TAOK1 / Fold change vs veh, TAOK1 / RFU, ACBD3 / Fold change vs veh, ACBD3 / RFU, TMA16 / Fold change vs veh, TMA16 / RFU, RWDD3 / Fold change vs veh, RWDD3 / RFU, BCAT1 / Fold change vs veh, BCAT1 / RFU, EDEM3 / Fold change vs veh, EDEM3 / RFU, TMEM33 / Fold change vs veh, TMEM33 / RFU, WDR75 / Fold change vs veh, WDR75 / RFU, AHCTF1 / Fold change vs veh, AHCTF1 / RFU, TFRC / Fold change vs veh, TFRC / RFU, ZDHHC17 / Fold change vs veh, ZDHHC17 / RFU, NOM1 / Fold change vs veh, NOM1 / RFU, ARL8B / Fold change vs veh, ARL8B / RFU, ZBTB11 / Fold change vs veh, ZBTB11 / RFU, TAMM41 / Fold change vs veh, TAMM41 / RFU, KIAA1704 /// LOC100996395 / Fold change vs veh, KIAA1704 /// LOC100996395 / RFU, ING1 / Fold change vs veh, ING1 / RFU, TRMT61B / Fold change vs veh, TRMT61B / RFU, FUBP3 / Fold change vs veh, FUBP3 / RFU, TP53 / Fold change vs veh, TP53 / RFU, TNKS2 / Fold change vs veh, TNKS2 / RFU, ZFP14 / Fold change vs veh, ZFP14 / RFU, ACTR2 / Fold change vs veh, ACTR2 / RFU, PPP3R1 / Fold change vs veh, PPP3R1 / RFU, PIK3R1 / Fold change vs veh, PIK3R1 / RFU, HNRNPA1 / Fold change vs veh, HNRNPA1 / RFU, RNF170 / Fold change vs veh, RNF170 / RFU, ZNF28 / Fold change vs veh, ZNF28 / RFU, RNGTT / Fold change vs veh, RNGTT / RFU, OGT / Fold change vs veh, OGT / RFU, BRD1 / Fold change vs veh, BRD1 / RFU, MARS / Fold change vs veh, MARS / RFU, ZNF655 / Fold change vs veh, ZNF655 / RFU, FAHD1 / Fold change vs veh, FAHD1 / RFU, BDP1 / Fold change vs veh, BDP1 / RFU, LRRCC1 / Fold change vs veh, LRRCC1 / RFU, ARID1A / Fold change vs veh, ARID1A / RFU, ZNF146 / Fold change vs veh, ZNF146 / RFU, ZNF330 / Fold change vs veh, ZNF330 / RFU, GPN3 / Fold change vs veh, GPN3 / RFU, C9orf123 / Fold change vs veh, C9orf123 / RFU, N4BP2L2 / Fold change vs veh, N4BP2L2 / RFU, ARFIP1 / Fold change vs veh, ARFIP1 / RFU, FAM179B / Fold change vs veh, FAM179B / RFU, BCL10 / Fold change vs veh, BCL10 / RFU, UHRF1BP1L / Fold change vs veh, UHRF1BP1L / RFU, BET1 / Fold change vs veh, BET1 / RFU, CNOT2 / Fold change vs veh, CNOT2 / RFU, ZNF268 / Fold change vs veh, ZNF268 / Fold change vs veh, ZNF507 / RFU, DGCR2 / Fold change vs veh, DGCR2 / RFU, WDSUB1 / Fold change vs veh, WDSUB1 / Fold change vs veh, HSP90B1 /// MIR3652 / RFU, ADSS / Fold change vs veh, ADSS / RFU, GK / Fold change vs veh, GK / RFU, ZNF148 / Fold change vs veh, ZNF148 / RFU, TAF9 / Fold change vs veh, TAF9 / RFU, SLC1A5 / Fold change vs veh, SLC1A5 / RFU, SLMO2 / Fold change vs veh, SLMO2 / RFU, ABCC4 / Fold change vs veh, ABCC4 / RFU, LOC101060439 /// RAP1B / Fold change vs veh, LOC101060439 /// RAP1B / RFU, RFX7 / Fold change vs veh, RFX7 / RFU, GTPBP10 / Fold change vs veh, GTPBP10 / RFU, CNEP1R1 / Fold change vs veh, CNEP1R1 / RFU, BIVM-ERCC5 /// ERCC5 / Fold change vs veh, BIVM-ERCC5 /// ERCC5 / RFU, ILF3 / Fold change vs veh, ILF3 / RFU 11762660_at / Fold change /veh 11762660_at / RFU VCAN (11757783_s_at) / Fold change /veh VCAN (11757783_s_at) / RFU DDX43 (11728927_at) / Fold change /veh DDX43 (11728927_at) / RFU KRT8 (11758188_x_at) / Fold change /veh KRT8 (11758188_x_at) / RFU NKD1 (11759106_at) / Fold change /veh NKD1 (11759106_at) / RFU SRD5A1 (11742802_a_at) / Fold change /veh SRD5A1 (11742802_a_at) / RFU TPSAB1 /// TPSB2 (11721975_s_at) / Fold change /veh TPSAB1 /// TPSB2 (11721975_s_at) / RFU GSTM3 (11746129_a_at) / Fold change /veh GSTM3 (11746129_a_at) / RFU IL23R (11737362_x_at) / Fold change /veh IL23R (11737362_x_at) / RFU TMEM51 (11727254_a_at) / Fold change /veh TMEM51 (11727254_a_at) / RFU PIWIL2 (11732686_x_at) / Fold change /veh PIWIL2 (11732686_x_at) / RFU ORM1 (11744905_x_at) / Fold change /veh ORM1 (11744905_x_at) / RFU CCDC152 (11743942_at) / Fold change /veh CCDC152 (11743942_at) / RFU ECM1 (11717891_a_at) / Fold change /veh ECM1 (11717891_a_at) / RFU IL23R (11748794_a_at) / Fold change /veh IL23R (11748794_a_at) / RFU TNFAIP8L3 (11732012_x_at) / Fold change /veh TNFAIP8L3 (11732012_x_at) / RFU MBOAT4 (11741988_at) / Fold change /veh MBOAT4 (11741988_at) / RFU 11764193_at / Fold change /veh 11764193_at / RFU TMEM53 (11763286_at) / Fold change /veh TMEM53 (11763286_at) / RFU MAGEB2 (11727129_at) / Fold change /veh MAGEB2 (11727129_at) / RFU TMEM200A (11744735_a_at) / Fold change /veh TMEM200A (11744735_a_at) / RFU CCDC152 (11751479_a_at) / Fold change /veh CCDC152 (11751479_a_at) / RFU FAM211A (11726209_a_at) / Fold change /veh FAM211A (11726209_a_at) / RFU RGS16 (11746705_a_at) / Fold change /veh RGS16 (11746705_a_at) / RFU VCAN (11755009_s_at) / Fold change /veh VCAN (11755009_s_at) / RFU RHOB (11743442_s_at) / Fold change /veh RHOB (11743442_s_at) / RFU RGS16 (11720943_a_at) / Fold change /veh RGS16 (11720943_a_at) / RFU RGS16 (11720944_at) / Fold change /veh RGS16 (11720944_at) / RFU, VPS4B / Fold change vs veh, VPS4B / RFU, CREB1 / Fold change vs veh, CREB1 / RFU, DNAJC13 / Fold change vs veh, DNAJC13 / RFU, GNAQ / Fold change vs veh, GNAQ / RFU, CDK5R1 / Fold change vs veh, CDK5R1 / RFU, ZRANB3 / Fold change vs veh, ZRANB3 / RFU, CUL4A / Fold change vs veh, CUL4A / RFU, CCNY / Fold change vs veh, CCNY / RFU, UFL1 / Fold change vs veh, UFL1 / RFU, COG3 / Fold change vs veh, COG3 / RFU, DIAPH2 / Fold change vs veh, DIAPH2 / RFU, SKA2 / Fold change vs veh, SKA2 / RFU, AFF3 / Fold change vs veh, AFF3 / RFU, LMF1 / Fold change vs veh, LMF1 / RFU, IPO11 / Fold change vs veh, IPO11 / RFU, DFFB / Fold change vs veh, DFFB / RFU, FOXP1 / Fold change vs veh, FOXP1 / RFU, CARD8 / Fold change vs veh, CARD8 / RFU, STRN3 / Fold change vs veh, STRN3 / RFU, ADK / Fold change vs veh, ADK / RFU, RASSF2 / Fold change vs veh, RASSF2 / RFU, WIPF1 / Fold change vs veh, WIPF1 / RFU, LARP1B / Fold change vs veh, LARP1B / RFU, RASA1 / Fold change vs veh, RASA1 / RFU, RB1 / Fold change vs veh, RB1 / RFU, PPFIA1 / Fold change vs veh, PPFIA1 / RFU, MAT2A / Fold change vs veh, MAT2A / RFU, CCT5 / Fold change vs veh, CCT5 / RFU, WDR92 / Fold change vs veh, WDR92 / RFU, CUX1 / Fold change vs veh, CUX1 / RFU, TTC7A / Fold change vs veh, TTC7A / RFU, TMEM135 / Fold change vs veh, TMEM135 / RFU, DEPTOR / Fold change vs veh, DEPTOR / RFU, CPM / Fold change vs veh, CPM / RFU, DNAJB6 / Fold change vs veh, DNAJB6 / RFU, CACNA2D3 / Fold change vs veh, CACNA2D3 / RFU, DTX4 / Fold change vs veh, DTX4 / RFU, TFCP2 / Fold change vs veh, TFCP2 / RFU, GMCL1 /// GMCL1P1 / Fold change vs veh, GMCL1 /// GMCL1P1 / RFU, AEBP2 / Fold change vs veh, AEBP2 / RFU, SNHG1 /// SNORD22 /// SNORD25 /// SNORD26 /// SNORD27 /// SNORD28 /// SNORD29 /// SNORD31 / Fold change vs veh, SNHG1 /// SNORD22 /// SNORD25 /// SNORD26 /// SNORD27 /// SNORD28 /// SNORD29 /// SNORD31 / Fold change (Aza/veh), C12orf56 (ProbeSet 11735607_a_at) / Fold change (ACY-1035/veh), C12orf56 (ProbeSet 11735607_a_at) / Fold change (Aza/veh), FGFR1OP (ProbeSet 11751329_s_at) / Fold change (ACY-1035/veh), FGFR1OP (ProbeSet 11751329_s_at) / Fold change (Aza/veh), VPS36 (ProbeSet 11739960_a_at) / Fold change (ACY-1035/veh), VPS36 (ProbeSet 11739960_a_at) / RFU SYPL1 (11715823_x_at) / Fold change /veh SYPL1 (11715823_x_at) / RFU IGFBP7 (11715501_s_at) / Fold change /veh IGFBP7 (11715501_s_at) / RFU REEP3 (11722064_at) / Fold change /veh REEP3 (11722064_at) / RFU IGLL1 (11728026_x_at) / Fold change /veh IGLL1 (11728026_x_at): dose or concentration left out as unconfirmed
Settings: ProbeSet 11759095_at; LIST D

SMILES: Nc1ncn([C@@H]2O[C@H](CO)[C@@H](O)[C@H]2O)c(=O)n1 [azacitidine]
- RFU, GNAQ: 765.32 RFU
